According to ChEMBL document CHEMBL5241112, “Insights into the recent progress in the medicinal chemistry of pyranopyrimidine analogs” (RSC Med Chem, 2022):
In brackets after ≈: the same amount, converted by molar mass. Blank lines part the entries; values can stand above or below the molecule they belong to.

Key:
[1] = test system: HepG2; assay: Anticancer activity against human HepG2 cells assessed as reduction in cell viability incubated for 24 hrs by MTT assay; format: functional, cell-based; conditions: HepG2, 24 h
[2] = test system: A549; assay: Anticancer activity against human A549 cells assessed as reduction in cell viability incubated for 24 hrs by MTT assay; format: functional, cell-based; conditions: A549, 24 h
[3] = test system: MCF7; assay: cells; format: functional, cell-based; conditions: Homo sapiens, MCF7, 96 h
[4] = molecular target: Poly [ADP-ribose] polymerase 1 (Homo sapiens, UniProt P09874); assay: Inhibition of PARP1 (unknown origin) incubated for 1 hrs by colorimetric analysis
Chain of Poly [ADP-ribose] polymerase 1 (P09874 whole entry): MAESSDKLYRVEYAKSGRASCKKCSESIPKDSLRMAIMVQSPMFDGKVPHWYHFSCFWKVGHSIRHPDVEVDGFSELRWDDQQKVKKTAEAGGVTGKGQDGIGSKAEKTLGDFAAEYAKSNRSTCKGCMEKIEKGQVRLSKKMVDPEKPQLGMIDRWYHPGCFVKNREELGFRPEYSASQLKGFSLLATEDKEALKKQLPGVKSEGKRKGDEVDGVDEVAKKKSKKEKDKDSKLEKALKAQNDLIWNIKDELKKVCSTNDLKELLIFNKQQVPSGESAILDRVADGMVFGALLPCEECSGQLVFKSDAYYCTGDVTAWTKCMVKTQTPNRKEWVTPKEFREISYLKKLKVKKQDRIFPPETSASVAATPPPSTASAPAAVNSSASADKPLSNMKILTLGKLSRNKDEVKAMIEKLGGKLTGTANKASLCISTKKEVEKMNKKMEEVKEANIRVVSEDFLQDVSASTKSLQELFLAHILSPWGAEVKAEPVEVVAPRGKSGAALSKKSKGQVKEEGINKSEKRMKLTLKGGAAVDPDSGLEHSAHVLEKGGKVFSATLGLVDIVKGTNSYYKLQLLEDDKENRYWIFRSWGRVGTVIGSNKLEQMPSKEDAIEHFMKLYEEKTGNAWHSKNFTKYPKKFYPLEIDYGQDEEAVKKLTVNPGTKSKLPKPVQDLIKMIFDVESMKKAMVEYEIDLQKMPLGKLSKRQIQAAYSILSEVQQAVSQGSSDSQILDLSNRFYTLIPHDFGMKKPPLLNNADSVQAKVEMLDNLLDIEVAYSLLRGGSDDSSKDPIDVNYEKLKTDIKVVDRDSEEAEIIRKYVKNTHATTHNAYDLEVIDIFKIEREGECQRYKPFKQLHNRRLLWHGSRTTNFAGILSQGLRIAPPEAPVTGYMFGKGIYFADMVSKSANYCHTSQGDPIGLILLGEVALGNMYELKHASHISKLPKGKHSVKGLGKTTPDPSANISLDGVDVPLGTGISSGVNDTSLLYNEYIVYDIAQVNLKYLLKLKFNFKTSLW

[5] = test system: HCT-116; assay: Anticancer activity against human HCT-116 cells assessed as reduction in cell viability incubated for 96 hrs by MTT assay; format: functional, cell-based; conditions: HCT-116, 96 h
[6] = test system: WI-38; assay: Cytotoxicity against human WI-38 cells assessed as lethality incubated for 24 hrs; format: toxicity, cell-based; conditions: wi-38, 24 h
[7] = Cytotoxicity against human WI-38 cells assessed as cell growth inhibition incubated for 24 hrs; format: toxicity, cell-based
[8] = test system: NUGC; assay: Anticancer activity against human NUGC cells assessed as cell growth inhibition incubated for 24 hrs; format: functional, cell-based
[9] = test system: MCF7; assay: Anticancer activity against human MCF7 cells assessed as cell growth inhibition incubated for 24 hrs; format: functional, cell-based; conditions: MCF7, 24 h
[10] = test system: HepG2; assay: Anticancer activity against human HepG2 cells assessed as cell growth inhibition incubated for 24 hrs; format: functional, cell-based; conditions: HepG2, 24 h
[11] = test system: DLD-1; assay: Anticancer activity against human DLD-1 cells assessed as cell growth inhibition incubated for 24 hrs; format: functional, cell-based; conditions: DLD-1, 24 h
[12] = test system: HONE1 cell line; assay: Anticancer activity against human HONE1 cell line assessed as cell growth inhibition incubated for 24 hrs; format: functional, cell-based; conditions: HONE1, 24 h
[13] = test system: Escherichia coli; assay: Antimicrobial activity against Escherichia coli ATCC 25922 assessed as diameter of inhibition zone at 20 mg/ml incubated for 24 hrs by disk diffusion method; format: functional; conditions: read-out: DIZ
[14] = test system: Citrobacter freundii; assay: Antimicrobial activity against Citrobacter freundii ATCC 8090 assessed as diameter of inhibition zone at 20 mg/ml incubated for 24 hrs by disk diffusion method; format: functional; conditions: read-out: DIZ
[15] = test system: Pseudomonas aeruginosa; assay: Antimicrobial activity against Pseudomonas aeruginosa ATCC 27853 assessed as diameter of inhibition zone at 20 mg/ml incubated for 24 hrs by disk diffusion method; format: functional; conditions: read-out: DIZ
[16] = test system: Klebsiella pneumoniae; assay: Antimicrobial activity against Klebsiella pneumoniae ATCC 15380 assessed as diameter of inhibition zone at 20 mg/ml incubated for 24 hrs by disk diffusion method; format: functional; conditions: read-out: DIZ
[17] = test system: Salmonella typhimurium; assay: Antimicrobial activity against Salmonella typhimurium ATCC 19430 assessed as diameter of inhibition zone at 20 mg/ml incubated for 24 hrs by disk diffusion method; format: functional, Salmonella enterica subsp. enterica serovar Typhimurium; conditions: Salmonella enterica, read-out: DIZ
[18] = test system: SK-OV-3; assay: Anticancer activity against human SK-OV-3 cells assessed as reduction in cell viability incubated for 24 hrs by MTT assay; format: functional, cell-based; conditions: SK-OV-3, 24 h
[19] = test system: MCF7; assay: Anticancer activity against human MCF7 cells assessed as reduction in cell viability incubated for 24 hrs by MTT assay; format: functional, cell-based; conditions: MCF7, 24 h
[20] = test system: Escherichia coli; assay: Antibacterial activity against Escherichia coli ATCC 25922 assessed as diameter of inhibition zone at 50 mg/ml incubated for 24 hrs by paper disk diffusion method; format: functional; conditions: read-out: DIZ
[21] = test system: Bacillus subtilis; assay: Antibacterial activity against Bacillus subtilis assessed as diameter of inhibition zone at 100 ug/ml by disc diffusion method; format: functional; conditions: read-out: DIZ
[22] = test system: Klebsiella pneumoniae; assay: Antibacterial activity against Klebsiella pneumoniae MTCC 109 assessed as diameter of inhibition zone at 0.1 mg/ml incubated for 24 hrs by agar well diffusion method; format: functional; conditions: read-out: DIZ
[23] = test system: Staphylococcus aureus; assay: Antibacterial activity against Staphylococcus aureus ATCC6538-P assessed as inhibition of bacterial growth incubated for 24 hrs by disk diffusion method; format: functional
[24] = test system: Aspergillus fumigatus; assay: Antifungal activity against Aspergillus fumigatus ATCC204305 assessed as inhibition of […] growth incubated for 24 hrs by disk diffusion method; format: functional
[25] = test system: Klebsiella pneumoniae; assay: Antibacterial activity against Klebsiella pneumoniae MGH 78578 assessed as diameter of inhibition zone at 50 mg/ml incubated for 24 hrs by paper disk diffusion method; format: functional; conditions: read-out: DIZ
[26] = test system: Streptococcus pneumoniae; assay: Antibacterial activity against Streptococcus pneumoniae ATCC BAA-255/R6 assessed as inhibition of bacterial growth incubated for 24 hrs by disk diffusion method; format: functional
[27] = test system: Pseudomonas aeruginosa; assay: Antibacterial activity against Pseudomonas aeruginosa MTCC 741 assessed as diameter of inhibition zone at 0.1 mg/ml incubated for 24 hrs by agar well diffusion method; format: functional; conditions: read-out: DIZ
[28] = test system: Escherichia coli; assay: Antibacterial activity against Escherichia coli MTCC 723 assessed as diameter of inhibition zone at 0.1 mg/ml incubated for 24 hrs by agar well diffusion method; format: functional; conditions: read-out: DIZ
[29] = test system: Staphylococcus aureus; assay: Antibacterial activity against Staphylococcus aureus MTCC 87 assessed as diameter of inhibition zone at 0.1 mg/ml incubated for 24 hrs by agar well diffusion method; format: functional; conditions: read-out: DIZ
[30] = test system: Klebsiella pneumoniae; assay: Antibacterial activity against Klebsiella pneumoniae assessed as diameter of inhibition zone at 100 ug/ml by disc diffusion method; format: functional; conditions: read-out: DIZ
[31] = test system: Staphylococcus aureus; assay: Antibacterial activity against Staphylococcus aureus assessed as diameter of inhibition zone at 100 ug/ml by disc diffusion method; format: functional; conditions: read-out: DIZ
[32] = test system: Escherichia coli; assay: Antibacterial activity against Escherichia coli assessed as diameter of inhibition zone at 100 ug/ml by disc diffusion method; format: functional; conditions: read-out: DIZ

IC50 [1]: 69800 nM
IC50 [2]: 3620 nM
Compound: CCCCCCCCn1cc(Cn2c(C)nc3c(c2=O)C(c2ccccc2)C(C(=O)OCC)=C(C)O3)nn1 (stereo not drawn)

IC50 [3]: 660 nM
IC50 [4]: 15.8 nM
IC50 [5]: 2760 nM
Compound: Nc1cc(-c2ccc([N+](=O)[O-])cc2)nc2c1C(c1cccs1)c1c([nH]c(=O)[nH]c1=O)O2 (stereo not drawn)

IC50 [2]: 690 nM
IC50 [18]: 96500 nM
IC50 [19]: 71400 nM
Compound: CCOC(=O)C1=C(C)Oc2nc(C)n(Cc3cn(-c4ccc([N+](=O)[O-])cc4)nn3)c(=O)c2C1c1ccccc1 (stereo not drawn)

MIC [23]: 31.3 µg/mL (≈ 85.7 µM)
MIC [24]: 15.6 µg/mL (≈ 42.7 µM)
MIC [26]: 7.8 µg/mL (≈ 21.3 µM)
Compound: CC1(C)S[C@@H]2[C@H](NC(=O)[C@H](N)c3ccc(O)cc3)C(=O)N2[C@H]1C(=O)O [AMOXICILLIN]
zone of inhibition at 50000 µg/mL [20]: 24 mm
zone of inhibition at 100 µg/mL [21]: 15.5 mm
zone of inhibition at 100 µg/mL [22]: 13.6 mm
zone of inhibition at 50000 µg/mL [25]: 15 mm
zone of inhibition at 100 µg/mL [27]: 15 mm
zone of inhibition at 100 µg/mL [28]: 14.9 mm
zone of inhibition at 100 µg/mL [29]: 13.8 mm
zone of inhibition at 100 µg/mL [30]: 18 mm
zone of inhibition at 100 µg/mL [31]: 17.5 mm
zone of inhibition at 100 µg/mL [32]: 19.5 mm

The remaining lines, values behind:

Compound: N#CC1=C(N)C2C(=NC(NNc3ccccc3)=NC2c2ccc(Cl)cc2)OC1=O (stereo not drawn)
LC50 [6]: 18.38 µg/mL (≈ 45.2 µM)
IC50 at 24 h [7]: 222 nM
IC50 [8]: 55 nM
IC50 [9]: 285 nM
IC50 [10]: 523 nM
IC50 [11]: 146 nM
IC50 [12]: 536 nM

Compound: Cc1csc(C2C(C#N)=C(N)Oc3[nH]c(=O)[nH]c(=O)c32)c1 (stereo not drawn)
zone of inhibition at 20000 µg/mL [13]: 14 mm
zone of inhibition at 20000 µg/mL [14]: 12 mm
zone of inhibition at 20000 µg/mL [15]: 18 mm
zone of inhibition at 20000 µg/mL [16]: 16 mm
zone of inhibition at 20000 µg/mL [17]: 20 mm
